Assay results as given in US20140194506A1, “Use of Potassium Piperonyl Pentadienoate for Lowering Blood Lipid” (INNER MONGOLIA UNIVERSITY, priority 2011, published 2014).
Where “and” joins values, the source holds several entries; their conditions need not be identical. Identical values can stand only once.

What was measured:
[1] = tested on: high lipid mode white rats; experiment: Therapeutic blood lipid lowering in hyperlipoidemia mode white rats (Example 3); assay type: in vivo, Wistar male white rats
Source text: High lipid feed formula: cholesterol 3%, lard 10%, sodium cholate 0.5%, basal feed: 86.5% (formula: flour 17.14%, rice flour 8.57%, maize 17.14%, bran 21%, fish flour 1.71%, dairy salt 0.857%, vitamin 0.085%, bean material 17.14%).
72 Wistar white male rats of 170±10 g of body weight were divided into 6 groups randomly and numbered. Each group included 12 rats. The rats were fed with common standard feed under experimental conditions and observed for 7 days, and its blood was sampled from tail for testing serum total cholesterol (TC). […] From the 8th day, the group I was set as a blank group, and was fed with common standard feed. Other groups were fed with high lipid feed for 8 days in a row, and the blood was sampled from tail on the next day for testing TC. […] The rats then were divided into 5 groups randomly (see table 12) according to TC levels. Each group included 10 rats (10 rats who were unsuccessful blood lipid modes were discarded). The rats were ted with high lipid teed continuously. Group was a high lipid feed mode control group. Group III was a Simvastatin 10 mg/kg group. Group IV was a GB-O group. Group V was a GB-H group. Group VI was a GB-K group. The high lipid feed mode control group was fed with high lipid feed together with distilled water. Groups III, IV, V, and VI were fed with high lipid feed together with required simvastatin, GB-O, GB-H, and GB-K suspensions (formulated by grinding with 0.5% sodium carboxymethycellulose CMC-Na) respectively. The dosing amount was 0.046 mmol/kg, and the amount of high lipid feed was 20 g per day for each rat. The grouping and the dosing amount for each group can be found in table 13.
(§1) The body weights of white rats were determined and recorded every day. The rats for each group were dosed basing, on its body weight by feeding for 14 days at 22° C. of room temperature and 40-50% of relative humidity. On the 14th day, after fasting and freely receiving water for 16 hours, the blood was sampled from aorta, placed for 30 min to blood coagulate, centrifugated for 15 min at 3000 r/min to separate serum. The values of serum total cholesterol (TC), and triglyceride (TG) were determined on an automatic analyzer using enzymatic colorimetry, the value of high density lipoprotein cholesterol (HDL) was determined using a phosphotungstic acid-Mg precipitation method, and the value of low density lipoprotein cholesterol (LDL) was determined using a polyvinyl sulfate precipitation method.
(§2) All data were treated statistically, and are presented as means standard deviations (x±s). The significance of difference was judged by T test. The calculation of p value was obtained by comparing the high lipid mode group with the blank control group, and comparing other test drug groups with the high lipid mode group.
The reaction temperature was 37° C. The cholesterol ester in serum was first hydrolyzed into free cholesterol (FC) and fatty acid with cholesterol ester hydrolase (CEH.) Then, all FC in serum was oxidized into ch-4-en-3-one and H2O2) with cholesterol oxidase (COD). The resulting H2O2, was reacted with 4-aminoantipyrine (4-AAP) and 4-chlorophenol in the presence of peroxidase (POD) (Trinder reaction), to yield red quinine imine, which was colarimetrically tested at 500 nm wavelength.
The reaction temperature was 37° C. The triglyceride in serum was first hydrolyzed into glycerol and fatty acid with lipoprotein lipase (LPL). The resulting glycerol was reacted with ATP in the presence of glycerol kinase (GK), to produce glycerol-3-phosphate and ADP. The resulting glycerol-3-phosphate was oxidized into dihydroxyacetone phosphate and H2O2 with oxygen in the presence of glycerol phosphate oxidase (GPO). […]

[2] = tested on: high lipid mode white rats; experiment: Prophylactic blood lipid lowering in high lipid feed white rats (Example 2); assay type: in vivo, Wistar male white rats
Source text: High lipid feed formula: cholesterol 3%, lard 10%, sodium cholate 0.5%, basal feed: […] (formula: flour 17.14%, rice flour 8.57%, maize […], bran 21%, fish flour 1.71%, dairy salt 0.857%, vitamin 0.085%, bean material 17.14%).
60 Wistar White male rats of 150±10 g of body weight were fed with common standard feed for 5 days, and then divided into 6 groups randomly. Each group included 10 rats. Group I was a blank group, where the rats were fed with common standard feed. Group II was a high lipid feed mode control group. Group III was a Simvastatin 10 mg/kg group. Group IV was a GB-O group. Group V was a GB-H group. Group VI was a GB-K group. High lipid feed mode control group were fed with high lipid feed together with distilled water. Groups III, IV, V, and VI were fed with high lipid feed together with required simvastatin, GB-O, GB-H, and GB-K suspensions (formulated by grinding with 0.5% sodium […] CMC-Na) respectively. The dosing amount was 0.046 mmol/kg, and the amount of high lipid feed was 20 g per day for each rat. The grouping and the dosing amount for each group can be found in table 1.
as §1, with “The rats in each group” for “The rats for each group”, “were dosed basing on its” for “were dosed basing, on its”, “16 hours, its blood was” for “16 hours, the blood was”, “blood coagulate, and centrifugated for” for “blood coagulate, centrifugated for”, “determined using the polyvinyl sulfate” for “determined using a polyvinyl sulfate”
as §2, with “were” for “are”, “means±standard” for “means standard”
The reaction temperature was 37° C. The cholesterol ester in serum was first hydrolyzed into free cholesterol (FC) and fatty acid with cholesterol ester hydrolase (CEH). Then, all FC in serum was oxidized into ch-4-en-3-one and H2O2 with cholesterol oxidase (COD). The resulting H2O2 was reacted with 4-aminoantipyrine (4-AAP) and 4-chlorophenol in the presence of peroxidase (POD) (Trinder reaction), to yield red quinine imine, which was calorimetrically tested at a 500 nm wavelength.
The reaction temperature was 37° C. The triglyceride ire serum was first hydrolyzed into glycerol and fatty acid with lipoprotein lipase (LPL). The resulting glycerol was reacted with ATP in the presence of glycerol kinase (GK), to produce glycerol-3-phosphate and ADP. The resulting glycerol-3-phosphate was oxidized into dihydroxyacetone phosphate and H2O2 with oxygen in the presence of glycerol phosphate oxidase (GPO). The resulting H2O2 was reacted with 4-aminoantipyrine (4-AAP) and 4-chlorophenol in the presence of peroxidase (POD) (Trinder reaction), to yield red quinine imine, which was colorimetrically determined at a 500 nm wavelength.
The LDL in serum was precipitated using PVS. The serum TC and the Ch in the resulting supernatant were determined using the enzymatic methods described hereinabove, and the LDL-C was calculated by subtracting the Ch from the serum TC. The polyethylene glycol monoether (PEGME) was added in a suitable amount in order to facilitate the precipitation of LDL. […]

[3] = group mean n=10, 15th day after administration
[4] = in comparison with group II (high lipid mode control group)
[5] = rats No. 1-10, 0.046 mmol/kg (Simvastatin 10 mg/kg), 15th day after administration

## O=C(O)/C=C/C=C/c1ccc2c(c1)OCO2 [GB-H, piperonyl pentadienoic acid]
[1]; Table 18, mean ± standard deviation, n=10
  Total cholesterol value: 11.09 ± 1.82
[1]; Table 19, mean ± standard deviation, n=10
  Triglyceride value: 2.55 ± 0.42 mmol/L
[1]; Table 20, mean ± standard deviation, n=10
  Low density lipoprotein cholesterol: 3.34 ± 1.30 mmol/L
[1]; Table 21, mean ± standard deviation, n=10
  High density lipoprotein cholesterol: 0.67 ± 0.21 mmol/L
[1]; [3]
  serum high density lipoprotein cholesterol (HDL) contents, Mean: 0.67 mmol/L
  serum low density lipoprotein cholesterol (LDL) contents, Mean: 3.34 mmol/L
  serum total cholesterol (TC) contents, Mean: 11.09 mmol/L
  serum triglyceride (TG) contents, Mean: 2.55 mmol/L
[1]; [4]
  effect on serum high density lipoprotein cholesterol, in words: show the effect of some extent, of increasing high density lipoprotein cholesterol
  effect on serum low density lipoprotein cholesterol, in words: significant differences
  effect on serum total cholesterol, in words: extremely significant differences
  effect on serum triglyceride, in words: extremely significant differences
[1]; [5]
  serum high density lipoprotein cholesterol (HDL) contents, individual rats: 0.67 mmol/L and 0.85 mmol/L and 0.72 mmol/L and 0.77 mmol/L and 0.37 mmol/L and 0.46 mmol/L and 0.82 mmol/L and 0.73 mmol/L and 1.02 mmol/L and 0.35 mmol/L
  serum low density lipoprotein cholesterol (LDL) contents, individual rats: 2.22 mmol/L and 5.37 mmol/L (2×) and 2.03 mmol/L and 3.35 mmol/L and 3.61 mmol/L and 2.68 mmol/L and 2.09 mmol/L and 4.36 mmol/L and 2.34 mmol/L
  serum triglyceride (TG) contents, individual rats: 1.97 mmol/L and 2.08 mmol/L and 2.37 mmol/L and 2.61 mmol/L (2×) and 2.82 mmol/L and 2.47 mmol/L and 3.04 mmol/L and 2.23 mmol/L and 3.31 mmol/L
[1]; rats No. 1-10, hyperlipoidemia mode, drug 14 days, 0.046 mmol/kg (Simvastatin 10 mg/kg), 15th day after administration
  serum total cholesterol (TC) contents, individual rats: 12.34 mmol/L and 9.37 mmol/L and 12.03 mmol/L and 10.25 mmol/L and 10.37 mmol/L and 9.36 mmol/L (2×) and 11.28 mmol/L (2×) and 15.24 mmol/L
[2]; Table 6, mean ± standard deviation, n=10
  Total cholesterol value: 13.23 ± 3.49
[2]; Table 7, mean ± standard deviation, n=10
  Triglyceride value: 1.31 ± 0.3219 mmol/L
[2]; Table 8, mean ± standard deviation, n=10
  Low density lipoprotein cholesterol: 4.298 ± 1.0578 mmol/L
[2]; Table 9, mean ± standard deviation, n=10
  High density lipoprotein cholesterol: 0.325 ± 0.0902 mmol/L
[2]; group mean n=10, 0.046 mmol/kg (Simvastatin 10 mg/kg), 15th day after administration
  serum total cholesterol (TC) contents, Mean: 13.23 mmol/L
[2]; [3]
  serum high density lipoprotein cholesterol (HDL) contents, Mean: 0.32 mmol/L
  serum low density lipoprotein cholesterol (LDL) contents, Mean: 4.29 mmol/L
  serum triglyceride (TG) contents, Mean: 1.31 mmol/L
[2]; [4]
  effect on serum low density lipoprotein cholesterol, in words: show the effect of lowering serum low density lipoprotein cholesterol value
  effect on serum total cholesterol, in words: extremely significant differences
[2]; in comparison with group II (high lipid mode control group), listed as GB-1-1
  effect on serum triglyceride, in words: extremely significant differences
[2]; [5]
  serum high density lipoprotein cholesterol (HDL) contents, individual rats: 0.26 mmol/L (2×) and 0.48 mmol/L and 0.18 mmol/L and 0.35 mmol/L and 0.28 mmol/L and 0.42 mmol/L and 0.41 mmol/L and 0.30 mmol/L and 0.31 mmol/L
  serum low density lipoprotein cholesterol (LDL) contents, individual rats: 4.53 mmol/L and 5.85 mmol/L and 4.24 mmol/L and 2.74 mmol/L and 4.19 mmol/L and 2.68 mmol/L and 5.09 mmol/L and 4.86 mmol/L and 3.51 mmol/L and 5.29 mmol/L
  serum triglyceride (TG) contents, individual rats: 1.15 mmol/L and 1.64 mmol/L and 1.71 mmol/L and 0.91 mmol/L and 0.88 mmol/L and 1.06 mmol/L and 1.58 mmol/L and 1.23 mmol/L and 1.70 mmol/L and 1.30 mmol/L
[2]; rats No. 1-10, high lipid feed plus drug 14 days, 0.046 mmol/kg (Simvastatin 10 mg/kg), 15th day after administration
  serum total cholesterol (TC) contents, individual rats: 16.64 mmol/L and 14.72 mmol/L and 10.11 mmol/L and 13.12 mmol/L and 9.56 mmol/L and 7.83 mmol/L and 12.22 mmol/L and 14.24 mmol/L and 14.28 mmol/L and 19.58 mmol/L
